The values below come from paper PMC4776319 (Water research, 2015).

Read-outs that look alike come from different tables or passages of the source.

The target in data set [1] is T1, peroxisome proliferator-activated receptor (PPARγ) (Homo sapiens, UniProt P37231).
T1 sequence (P37231 238-505 limits assumed): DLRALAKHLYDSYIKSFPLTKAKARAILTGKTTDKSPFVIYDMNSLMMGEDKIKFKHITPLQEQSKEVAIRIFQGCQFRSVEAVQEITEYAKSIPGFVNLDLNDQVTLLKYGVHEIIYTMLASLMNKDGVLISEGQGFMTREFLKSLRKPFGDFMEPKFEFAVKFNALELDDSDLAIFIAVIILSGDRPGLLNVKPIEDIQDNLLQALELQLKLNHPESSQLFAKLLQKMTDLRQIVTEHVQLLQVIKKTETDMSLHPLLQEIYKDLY
Nature of the data set: PPARγ-GeneBLAzer-Anta. In kind it is cell-based. As to conditions: antagonist mode.

Data set [2] has as its target T1, peroxisome proliferator-activated receptor (PPARγ). As to conditions: read-out: EC50 value in literature; antagonist mode; ref Invitrogen, 2007b; cited from earlier work.
Data set [3] has as its system neuroblastoma cells (SK-N-SH).
The test system of data set [4] is monocyte cell line (THP1). As to conditions: read-out: EC50 value in literature; ref Leusch et al., 2014; cited from earlier work.
For data set [5], the target named is T2, glucocorticoid receptor (GR) (Homo sapiens, UniProt P04150).
T2 sequence (P04150 1-777): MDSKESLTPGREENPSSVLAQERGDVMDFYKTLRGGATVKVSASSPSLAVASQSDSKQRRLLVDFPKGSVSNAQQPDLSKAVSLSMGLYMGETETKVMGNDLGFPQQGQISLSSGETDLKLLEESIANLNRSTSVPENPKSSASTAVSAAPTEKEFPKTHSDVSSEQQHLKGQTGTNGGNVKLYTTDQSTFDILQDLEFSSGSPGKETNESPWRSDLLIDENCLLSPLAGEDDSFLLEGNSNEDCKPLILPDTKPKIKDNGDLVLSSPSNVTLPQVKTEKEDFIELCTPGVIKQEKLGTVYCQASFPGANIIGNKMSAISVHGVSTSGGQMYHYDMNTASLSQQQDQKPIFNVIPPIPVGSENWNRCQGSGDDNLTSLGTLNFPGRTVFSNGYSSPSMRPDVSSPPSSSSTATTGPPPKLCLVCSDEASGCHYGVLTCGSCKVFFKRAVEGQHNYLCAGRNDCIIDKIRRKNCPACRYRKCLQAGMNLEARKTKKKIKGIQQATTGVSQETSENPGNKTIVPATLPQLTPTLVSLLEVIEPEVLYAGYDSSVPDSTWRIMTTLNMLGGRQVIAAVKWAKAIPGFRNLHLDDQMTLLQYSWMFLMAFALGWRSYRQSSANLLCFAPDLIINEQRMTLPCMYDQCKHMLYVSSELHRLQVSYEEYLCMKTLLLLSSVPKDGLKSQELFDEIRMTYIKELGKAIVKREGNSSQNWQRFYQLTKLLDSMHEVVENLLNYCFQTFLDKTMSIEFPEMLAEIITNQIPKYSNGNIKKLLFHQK
The data set is described as follows: GR-Switchgear. In kind it is cell-based. As to conditions: reference chemical.

In data set [6] the test system is monocyte cell line (THP1). The data set is described as follows: THP1-cp cytokine production.
Another data set deals with Caco-2 cells. The data set is described as follows: Caco-2 NRU cytotoxicity. It counts as cell-based, human. As to conditions: carrier solvent as positive control.
Data set [7] deals with thyroid activity (cell proliferation). As to conditions: read-out: EC50 value in literature; ref Gutleb et al., 2005; cited from earlier work.
Data set [8] shares this test system. Nature of the data set: T-SCREEN cell proliferation assay, thyroid effects. In kind it is cell-based.
The test system of a further data set is Jurkat cell line. Nature of the data set: Jurkat E6-1 osmotic stress assay. It counts as cell-based. Particulars: reference chemical.
For data set [9], the system named is arylhydrocarbon receptor (AhR). Nature of the data set: AhR CAFLUX. It counts as cell-based. As to conditions: reference chemical.
In data set [10] the test system is arylhydrocarbon receptor (AhR). Particulars: read-out: EC50 value in literature; ref Macova et al., 2010; cited from earlier work.
In data set [11] the target is T3, progesterone receptor (PR) (Homo sapiens, UniProt P06401).
T3 sequence (P06401 1-933): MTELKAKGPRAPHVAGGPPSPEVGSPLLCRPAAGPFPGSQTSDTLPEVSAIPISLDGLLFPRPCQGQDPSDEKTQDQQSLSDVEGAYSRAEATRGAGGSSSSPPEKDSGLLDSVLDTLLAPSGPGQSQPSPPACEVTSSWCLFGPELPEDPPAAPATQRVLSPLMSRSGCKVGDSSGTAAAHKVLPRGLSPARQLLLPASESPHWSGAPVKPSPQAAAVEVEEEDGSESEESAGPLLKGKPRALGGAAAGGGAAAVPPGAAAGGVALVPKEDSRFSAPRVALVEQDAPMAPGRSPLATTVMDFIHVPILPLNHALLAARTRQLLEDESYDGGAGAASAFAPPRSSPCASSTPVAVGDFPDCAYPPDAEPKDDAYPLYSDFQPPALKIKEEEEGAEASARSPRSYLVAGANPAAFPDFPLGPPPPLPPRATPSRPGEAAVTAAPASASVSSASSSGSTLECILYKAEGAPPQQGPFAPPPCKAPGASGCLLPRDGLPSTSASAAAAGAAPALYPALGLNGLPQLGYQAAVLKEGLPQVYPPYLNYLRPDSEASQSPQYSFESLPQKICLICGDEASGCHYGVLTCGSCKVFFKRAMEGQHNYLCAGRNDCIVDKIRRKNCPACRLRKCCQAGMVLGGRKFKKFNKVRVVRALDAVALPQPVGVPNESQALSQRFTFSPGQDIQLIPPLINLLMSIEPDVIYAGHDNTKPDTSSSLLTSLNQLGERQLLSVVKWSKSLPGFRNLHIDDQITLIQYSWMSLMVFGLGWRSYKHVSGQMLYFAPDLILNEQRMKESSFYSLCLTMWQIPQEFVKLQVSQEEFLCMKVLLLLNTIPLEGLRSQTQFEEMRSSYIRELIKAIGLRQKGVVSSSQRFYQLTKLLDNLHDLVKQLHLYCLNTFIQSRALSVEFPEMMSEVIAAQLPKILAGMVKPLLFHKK
The data set is described as follows: PR-CALUX-Anta. In kind it is cell-based. Particulars: antagonist mode, 20% suppression.

The subject of data set [12] is algae growth. Nature of the data set: Algae growth inhibition. It counts as cell-based.
Data set [13] has as its system algae photosynthesis. Particulars: read-out: EC50 value in literature, cited from earlier work.
Data set [14] has as its system algae growth. Particulars: read-out: EC50 value in literature; ref Escher et al., 2008a; cited from earlier work.
In data set [15] the test system is algae photosynthesis. The data set is described as follows: I-PAM algae photosynthesis inhibition. In kind it is cell-based.
For data set [16], the target named is T3, progesterone receptor (PR). Nature of the data set: PR-CALUX progestagenic effects. It counts as cell-based. Particulars: reference chemical.
For data set [17], the system named is Nrf2-MDA-MB cells. The data set is described as follows: cells. It counts as cell-based, human.
A further data set has as its system Nrf2-Keap-ARE32 pathway. As to conditions: read-out: EC50 value in literature; ref Escher et al., 2012; cited from earlier work.
For data set [18], the system named is Nrf2-MDA-MB cells. As to conditions: read-out: EC50 value in literature; ref Escher et al., 2012; cited from earlier work.

Turning to `O=C(Nc1ccccc1)c1cc([N+](=O)[O-])ccc1Cl` [GW9662], the ECSR0.2 in [1] (20% suppression) was determined as 3.0 nM. In data set [1] (read-out: ECSR0.5, 50% suppression), the IC50 worked out at 8.4 nM. Also, the EC50 in [2] was 3.5 nM.

In data set [3], `C[S+](C)[O-]` [DMSO, Dimethylsulfoxide] returned an EC10 of 0.11 M.

In the case of `C[C@@H]1C[C@H]2[C@@H]3CCC4=CC(=O)C=C[C@]4(C)[C@@]3(F)[C@@H](O)C[C@]2(C)[C@@]1(O)C(=O)CO` [Dexamethasone], the EC50 in data set [4] was 2.7 nM; in data set [6] (Homo sapiens, THP-1) it was 45 nM. In addition, the EC10 entry in [5] is given as “EC10 (0.5 nM); EC50 (2.6 nM)”; in [6] (reference chemical), 2.1 nM.

For the molecule `CO` [Methanol], the EC10 in the data set on Caco-2 cells was 0.4 M.

For `N[C@@H](Cc1cc(I)c(Oc2ccc(O)c(I)c2)c(I)c1)C(=O)O` [Triiodothyronine], the EC50 in data set [7] was 0.191 nM; in data set [8], 0.74 nM. In data set [8] (reference chemical), this molecule returned an EC10 of 0.28 nM.

In the data set with Jurkat cell line, `CCCCCCCCCCCCCC(=O)O[C@@H]1[C@@H](C)[C@@]2(O)[C@@H](C=C(CO)C[C@]3(O)C(=O)C(C)=C[C@@H]23)[C@@H]2C(C)(C)[C@]12OC(C)=O` [PMA, Phorbol-12-myristate-13-acetate] came in with an EC10 of 3 nM and an EC50 of 20 nM.

Consider `Clc1cc2c(cc1Cl)Oc1cc(Cl)c(Cl)cc1O2` [TCDD, 2,3,7,8-TCDD], for which, in data set [9], the EC10 was found to be 0.00065 nM and the response was half-maximal at 0.008 nM (EC50). Besides, the EC50 in data set [10] is 0.0248 nM.

Molecule `CC#C[C@]1(O)CC[C@H]2[C@@H]3CCC4=CC(=O)CCC4=C3[C@@H](c3ccc(N(C)C)cc3)C[C@@]21C` [Mifepristone] showed an ECSR0.2 in [11] of 20 pM.

On to `CN(C)C(=O)Nc1ccc(Cl)c(Cl)c1` [Diuron], for which the EC50 was 25 nM in the data set with algae growth [12]; 12.8 nM in the data set on algae photosynthesis [13] (ref Escher et al., 2008a); 68.6 nM in the data set on algae photosynthesis [13] (ref Macova et al., 2010); 135 nM with algae growth [14]; 6 nM in the data set on algae photosynthesis [15].

As for `C#C[C@]1(O)CC[C@H]2[C@@H]3CCC4=CC(=O)CC[C@@H]4[C@H]3CC[C@@]21CC` [Levonorgestrel], the EC10 in data set [16] was 0.3 nM.

As to `CC(C)(C)c1cc(O)ccc1O` [tBHQ, tert-Butylhydroquinone], the values for the EC50 in the data set on Nrf2-MDA-MB cells [17] (Homo sapiens), in the data set on Nrf2-Keap-ARE32 pathway and in the data set with Nrf2-MDA-MB cells [18] were 178000 nM, 1320 nM and 46000 nM, respectively. Moreover, in the data set with Nrf2-MDA-MB cells [17] (human), the EC10 is 103000 nM.

What is called EC50 is the concentration that produces a half-maximal response.
